Reference: ChEMBL document CHEMBL1154288, “The discovery and unique pharmacological profile of RO4938581 and RO4882224 as potent and selective GABAA alpha5 inverse agonists for the treatment of cognitive dysfunction” (Bioorg Med Chem Lett, 2009)
pKi: −log10 of the molar value. ≈ marks a conversion by molar mass, not a printed value.

What was measured:
[1] = target: GABA A receptor alpha-2/beta-2/gamma-2 (Rattus norvegicus) (UniProt P18508+P23576+P63138); assay: Inverse agonist activity at rat GABA alpha-2-beta-3-gamma-2 receptor expressed in HEK293 cells by electrophysiology assay relative to GABA; assay type: functional, cell-based
HEK293 [2] = assay: Selectivity ratio of Ki for cloned human GABA alpha-1-beta-3-gamma-2 receptor expressed in HEK293 cells to Ki for cloned human GABA alpha-5-beta-3-gamma-2 receptor expressed in HEK293 cells; assay type: cell-based
[3] = Solubility by lypophlisation solubility assay; assay type: physicochemical
HEK293 [4] = assay: Selectivity ratio of Ki for cloned human GABA alpha-3-beta-3-gamma-2 receptor expressed in HEK293 cells to Ki for cloned human GABA alpha-5-beta-3-gamma-2 receptor expressed in HEK293 cells; assay type: cell-based
[5] = Lipophilicity, log D at pH 7.4; assay type: physicochemical; conditions: buffer
[6] = Volume of distribution at steady state in rat; assay type: ADME, organism-based; conditions: in vivo, read-out: Vdss
[7] = target: T1, GABA-A receptor; alpha-5/beta-3/gamma-2 (Homo sapiens, UniProt P18507+P28472+P31644); assay: Displacement of [3H]Flumazenil from cloned human GABA alpha-5-beta-3-gamma-2 receptor expressed in HEK293 cells; assay type: cell-based
T1 sequence (P18507 whole entry): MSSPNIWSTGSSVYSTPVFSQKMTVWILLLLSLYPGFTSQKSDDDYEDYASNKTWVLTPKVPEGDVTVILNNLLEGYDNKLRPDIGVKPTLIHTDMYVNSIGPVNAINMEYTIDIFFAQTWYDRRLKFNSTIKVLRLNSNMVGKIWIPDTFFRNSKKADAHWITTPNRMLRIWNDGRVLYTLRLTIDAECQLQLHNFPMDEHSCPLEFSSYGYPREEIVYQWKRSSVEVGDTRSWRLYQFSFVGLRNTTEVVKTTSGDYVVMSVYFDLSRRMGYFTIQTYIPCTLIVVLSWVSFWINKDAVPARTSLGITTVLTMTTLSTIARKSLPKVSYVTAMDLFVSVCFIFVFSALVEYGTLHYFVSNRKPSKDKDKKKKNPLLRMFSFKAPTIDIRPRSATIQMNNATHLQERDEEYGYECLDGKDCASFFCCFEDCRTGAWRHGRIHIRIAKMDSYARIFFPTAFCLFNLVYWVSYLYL
T1 sequence (P28472 whole entry): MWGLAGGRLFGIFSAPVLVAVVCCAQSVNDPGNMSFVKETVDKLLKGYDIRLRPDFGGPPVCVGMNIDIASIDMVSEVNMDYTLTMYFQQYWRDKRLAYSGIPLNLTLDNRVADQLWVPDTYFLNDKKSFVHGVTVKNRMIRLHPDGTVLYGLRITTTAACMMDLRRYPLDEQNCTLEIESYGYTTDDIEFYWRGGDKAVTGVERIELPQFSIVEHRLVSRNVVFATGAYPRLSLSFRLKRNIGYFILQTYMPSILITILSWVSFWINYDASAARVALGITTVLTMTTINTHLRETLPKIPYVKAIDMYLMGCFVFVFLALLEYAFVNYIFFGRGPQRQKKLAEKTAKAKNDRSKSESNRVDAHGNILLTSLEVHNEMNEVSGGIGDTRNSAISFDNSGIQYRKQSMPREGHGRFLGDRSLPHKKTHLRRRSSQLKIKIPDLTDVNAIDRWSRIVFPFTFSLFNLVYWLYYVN
T1 sequence (P31644 whole entry): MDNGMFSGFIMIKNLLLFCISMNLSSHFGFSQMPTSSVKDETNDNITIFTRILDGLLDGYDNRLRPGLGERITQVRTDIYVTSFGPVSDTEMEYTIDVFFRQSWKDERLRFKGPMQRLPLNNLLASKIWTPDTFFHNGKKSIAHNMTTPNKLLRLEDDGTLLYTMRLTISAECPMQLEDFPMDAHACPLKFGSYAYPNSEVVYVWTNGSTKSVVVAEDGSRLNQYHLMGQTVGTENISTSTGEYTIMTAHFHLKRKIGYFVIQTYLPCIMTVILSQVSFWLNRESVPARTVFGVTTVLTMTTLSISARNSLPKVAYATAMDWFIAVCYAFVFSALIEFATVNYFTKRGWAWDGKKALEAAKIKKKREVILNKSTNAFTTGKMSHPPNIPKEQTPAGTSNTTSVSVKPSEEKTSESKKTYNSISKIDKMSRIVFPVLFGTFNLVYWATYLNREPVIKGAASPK

[8] = Ratio of drug level in brain to plasma in rat; assay type: ADME
[9] = target: T2, GABA-A receptor; alpha-3/beta-3/gamma-2 (Homo sapiens, UniProt P18507+P28472+P34903); assay: Displacement of [3H]Flumazenil from cloned human GABA alpha-3-beta-3-gamma-2 receptor expressed in HEK293 cells; assay type: cell-based
T2 sequence (P18507 whole entry): T1 sequence (P18507 whole entry)
T2 sequence (P28472 whole entry): T1 sequence (P28472 whole entry)
T2 sequence (P34903 whole entry): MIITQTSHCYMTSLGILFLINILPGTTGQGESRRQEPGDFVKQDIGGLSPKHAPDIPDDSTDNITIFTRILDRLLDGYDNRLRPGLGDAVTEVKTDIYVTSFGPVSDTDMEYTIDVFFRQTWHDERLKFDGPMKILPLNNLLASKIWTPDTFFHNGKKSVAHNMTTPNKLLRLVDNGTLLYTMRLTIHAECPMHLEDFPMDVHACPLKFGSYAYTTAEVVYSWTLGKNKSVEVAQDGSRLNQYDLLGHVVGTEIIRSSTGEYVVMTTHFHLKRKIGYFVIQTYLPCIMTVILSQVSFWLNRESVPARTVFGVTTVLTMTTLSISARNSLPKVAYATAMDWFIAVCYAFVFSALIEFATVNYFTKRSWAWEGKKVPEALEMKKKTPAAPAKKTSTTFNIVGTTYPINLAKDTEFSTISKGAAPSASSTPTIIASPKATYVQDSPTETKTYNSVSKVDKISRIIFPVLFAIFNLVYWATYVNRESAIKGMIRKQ

[10] = target: T3, GABA-A receptor; alpha-2/beta-3/gamma-2 (Homo sapiens, UniProt P18507+P28472+P47869); assay: Displacement of [3H]Flumazenil from cloned human GABA alpha-2-beta-3-gamma-2 receptor expressed in HEK293 cells; assay type: cell-based
T3 sequence (P18507 whole entry): T1 sequence (P18507 whole entry)
T3 sequence (P28472 whole entry): T1 sequence (P28472 whole entry)
T3 sequence (P47869 whole entry): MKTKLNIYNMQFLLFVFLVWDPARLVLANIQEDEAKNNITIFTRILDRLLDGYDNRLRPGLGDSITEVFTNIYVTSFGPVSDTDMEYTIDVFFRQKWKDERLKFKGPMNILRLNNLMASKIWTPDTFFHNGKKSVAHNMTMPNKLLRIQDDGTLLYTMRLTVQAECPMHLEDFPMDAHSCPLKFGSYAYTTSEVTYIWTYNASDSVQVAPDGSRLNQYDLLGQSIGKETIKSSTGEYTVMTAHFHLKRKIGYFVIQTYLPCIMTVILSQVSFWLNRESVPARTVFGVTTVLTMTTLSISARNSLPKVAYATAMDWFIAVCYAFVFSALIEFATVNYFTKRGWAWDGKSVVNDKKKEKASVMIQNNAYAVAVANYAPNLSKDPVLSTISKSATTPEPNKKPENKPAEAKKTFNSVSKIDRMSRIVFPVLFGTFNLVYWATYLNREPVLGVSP

[11] = target: Gamma-aminobutyric acid receptor subunit alpha-3 (Rattus norvegicus) (UniProt P20236); assay: Inverse agonist activity at rat GABA alpha-3-beta-3-gamma-2 receptor expressed in HEK293 cells by electrophysiology assay relative to GABA; assay type: functional, cell-based
Sequence of Gamma-aminobutyric acid receptor subunit alpha-3 (Rattus norvegicus) (P20236 whole entry): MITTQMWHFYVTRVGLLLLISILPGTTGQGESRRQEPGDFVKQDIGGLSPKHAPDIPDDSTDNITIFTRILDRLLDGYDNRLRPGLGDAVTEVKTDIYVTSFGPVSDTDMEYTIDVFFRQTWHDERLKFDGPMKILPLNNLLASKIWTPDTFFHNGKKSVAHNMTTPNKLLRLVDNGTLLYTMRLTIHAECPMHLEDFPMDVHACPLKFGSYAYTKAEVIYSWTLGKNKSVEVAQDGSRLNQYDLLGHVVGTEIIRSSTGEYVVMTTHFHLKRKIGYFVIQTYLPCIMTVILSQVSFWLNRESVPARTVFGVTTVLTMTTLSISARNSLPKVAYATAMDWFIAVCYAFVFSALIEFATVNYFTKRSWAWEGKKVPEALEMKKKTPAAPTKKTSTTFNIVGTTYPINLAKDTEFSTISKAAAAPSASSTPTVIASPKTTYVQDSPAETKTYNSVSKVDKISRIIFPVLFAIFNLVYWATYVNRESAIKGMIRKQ

SMILES	Efficacy [1]	Ratio Ki (HEK293 [2])	solubility [3]	Ratio Ki (HEK293 [4])	logD [5]	Vd [6]	pKi [7]	Kp [8]	pKi [9]	pKi [10]	Efficacy [11]
Clc1ccc2c(c1)-c1ncnn1Cc1c(Cl)ncn1-2	-9%	7	27 µg/mL (≈ 92.4 µM)	7	1.8	0.5 L/kg	8.70	0.2	7.85	7.62	-11%
FC(F)c1ncn2c1Cn1ncnc1-c1cc(Br)ccc1-2	-4%		19 µg/mL (≈ 54 µM)		1.9	1.2 L/kg	8.34	0.4	7.10	6.73	2%
Clc1ncn2c1Cn1ncnc1-c1cc(Br)ccc1-2	-25%	24	9 µg/mL (≈ 26.7 µM)	7	2.2	1.3 L/kg	8.85		8.06	7.62	-14%
Cc1ncn2c1Cn1ncnc1-c1cc(Cl)ccc1-2	-2%	6	13 µg/mL (≈ 47.8 µM)	88	2	1.9 L/kg	8.52	0.6	6.58	6.66	4%
